Experimental data published in US20120172375A1, “COMPOUNDS AND METHODS OF PROMOTING OLIGODENDROCYTE PRECURSOR DIFFERENTIATION” (priority 2008, published 2012).

B1: CNTF: ciliary neurotrophic factor, neurotrophin used as positive control for cell differentiation in primary screening (protein, UniProt P26441 1-200, looked up)
Ciliary neurotrophic factor: MAFTEHSPLTPHRRDLCSRSIWLARKIRSDLTALTESYVKHQGLNKNINLDSADGMPVASTDQWSELTEAERLQENLQAYRTFHVLLARLLEDQQVHFTPTEGDFHQAIHTLLLQVAAFAYQIEELMILLEYKIPRNEADGMPINVGDGGLFEKKLWGLKVLQELSQWTVRSIHDLRFISSHQTGIPARGSHYIANNKKM

Columns and labels:
[1] = test system: oligodendrocyte progenitor cells; assay: Western blot for myelin proteins PLP/DM20 and CNPase in treated oligodendrocyte progenitor cells; assay type: cell-based, mouse; settings: Table 3, 10 μM, 48 hrs
Description: (§1) Oligodendrocyte progenitors were generated from embryonic neural progenitors growing in cell aggregates known as neurospheres (Nphs). Nph were prepared from embryos at 14.5 days of gestation obtained from timed pregnant females of either wild type mice or the proteolipid protein-enhanced-green fluorescence protein (Plp-EGFP) transgenic mouse. In brief, after separation of meninges and cerebellum, cerebrum tissue was mechanically triturated with a 1 ml Gilson pipette until total tissue disaggregation was achieved, filtered through a 70 μm cell strainer (Fisher Scientific, Pittsburg, Pa.) and plated in 25 cm^2 plastic culture flasks (2 brains/flask). Nph proliferation media (NPM) was DMEM/F12, B27 neuronal supplement (Gibco, Baltimore, Md.) and 10 ng/ml EGF (Sigma, St. Louis, Mo.). After 48-72 hr, floating Nphs were passaged at a 1:3 ratio in the same medium every 3-4 days. To generate oligodendrocyte progenitors, single cells suspensions were obtained by chemical disgregation with the mouse NeuroCult dissociation kit (StemCell Technologies, Alberta, Canada). The single cell suspension was filtered through a 70 μm cell strainer and plated on 96-well poly-D-Lysine (PDL)-coated plates at a cell density of 1.5×10^4 cells/cm^2. Cells were maintained in NPM supplemented with 10 ng/ml PDGF/bFGF instead of EGF. Bipolar, oligodendrocyte progenitor cells were observed 24 hours after plating. At the Moment of treatment to induce oligodendrocyte progenitor differentiation, the media was changed to OPC differentiation media containing NPM with a 1:10 dilution of PDGF/FGF.
For myelin protein analyses, cells were grown on 100 mm culture plates and after exposure to small molecules or controls were washed twice with ice-cold PBS. RIPA lysis buffer was added to the plates and the cells were scraped, collected and disrupted with a homogenizer on ice. Cell homogenates were then centrifuged at 6,000×g, 10 min, 4° C. and supernatants separated in a fresh tube. After adding Laemli loading buffer, proteins were denaturized at 70° C. for 10 mm and loaded in gradient gels (4-20, Criterion, BioRad, Calif.). Electroforetically separated proteins were electro-transferred to nitrocellulose membranes in a semi-dry apparatus and unspecific bonds were blocked with IRdye blocking solution for at least 1 hr at RT. After washing twice with TBS-T, primary antibodies were added and incubated over night at 4° C. Membranes were incubated with secondary, IRdye-infrared conjugated antibodies for 1 hr at RT and visualized on the Odyssey scanner.
(§2) The primary screening to select positive compounds was performed at a standard concentration of 10 μM with cell morphology analysis 48 hrs after treatment. Dose response curves at 48 hrs treatment time were performed to determine the minimum concentration compounds A, A-7 and B needed to induce cell maturation. We assessed oligodendrocyte differentiation by cell morphology changes, green fluorescence in cells generated from or Plp-EGFP transgenic mouse, immunostaining for myelin proteins and western blot for expression of the oligodendrocyte markers PLP/DM20 and 2′,3′, cyclic nucleotide 3′ phosphohydrolase (CNPase). EC50 values were also calculated based on results of western blot for myelin proteins and subsequent band densitometry analysis. Additionally, we followed cell differentiation induced over long time exposure to compounds A and B (7 days, 0.1-10 μM).

[2] = test system: oligodendrocyte progenitor cells; assay: Immunocytochemistry for PLP/DM20 and MBP, count of differentiated cells; assay type: cell-based, mouse; settings: Table 3, 10 μM, 48 hrs
Description: Immunodetection of oligodendrocyte and myelin markers was performed. In brief, Oligodendrocyte cells plated on PDL-coated dishes were initially fixed in 2% paraformaldehyde (PFA) for 10 min at room temperature (RT) and then 4% PFA for 15 min, washed three times with PBS and permeabilized with 0.1% Triton X100 for 10 min at RT. After blocking with 3% BSA in PBS for 60 min a RT, the cells were incubated with primary antibodies at the indicated concentrations overnight (ON) at 4° C. The cells were washed three times with cold PBS incubated with secondary antibodies for 45 min at RT, and washed again before mounting. Immunostaining of tissue sections prepared with a sliding microtome (30 μm) was performed. In brief, tris buffered saline (TBS) containing 100 nM Sodium fluoride (TBSS) was used the all dilutions and washes. For antigen retrieval, sections were washed 3 times in TBSS, incubated in 5% methanol and 3% H2O2 for 10 min, washed 2 times, and then incubated in 10% Triton X-100 for 20 min. Blocking of unspecific bonds was performed by incubating the tissue sections with 10% NGS for 1 hr. Primary antibodies were diluted in 3% BSA containing 0.02% Triton X-100 and sections were incubated overnight in this solution. The next day the sections were washed 3 times in TBSS, followed by 1 hr incubation in secondary antibodies (1:1000) at 4° C. After several washes, the sections were mounted using Vectashield (Vector Laboratories, Burlingame, Calif.). Visualization of immunostained cells and tissue was performed on a Leica DMR (Wetzlar, Germany) or a Leica SP5 confocal microscope.
as §2
Compound A-7-induced oligodendrocyte progenitor maturation was also analyzed in comparison to control cells in immunostaining experiments to detect the myelin proteins MBP and PLP. Positive cells for these markers showing processes formation and membranous structures were counted versus total cells and counterstained with the nuclear dye Dapi after 48 hrs (Tables 3 and 4) and 7 days treatment with 0.1, 1 or 10 μM compound A-7 (FIG. 2, B).

[3] = test system: oligodendrocyte progenitors; assay: Primary/secondary screening: oligodendrocyte progenitor morphology changes and Plp-EGFP fluorescence; assay type: cell-based, mouse
Description: as §1, with “At the Moment of treatment to induce oligodendrocyte progenitor differentiation, the media was changed to OPC differentiation media containing NPM with a 1:10 dilution of PDGF/FGF.” left out
The small molecule library consists of handcrafted drug-like organic molecules with molecular weight in a range of 250-550, dissolved in DMSO at concentration of 5 mg/ml or […]. Their structure and >95% purity have been validated by NMR. […] Oligodendrocyte progenitor differentiation was scored using as 4 scale values as follows: 1: bipolar, undifferentiated; 2: bipolar to tripolar, initiated differentiation; 3: multibranched, differentiated cells; 4: multibranched, differentiated cells showing membranous structures (FIG. 1).
Differentiation induced by selected compounds was further validated by fluorescence microscopy in cells generated from our Plp-EGFP transgenic mouse. Increased fluorescence in treated oligodendrocyte progenitor was indicative of cell maturation and was again scored following the same scale. […] These were analyzed for cell toxicity assays by MTT were yellow 3-(4,5-Dimethylthiazol-2-yl)-2,5-diphenyltetrazolium bromide, a tetrazole (MTT) is reduced to purple formazan in the mitochondria of living cells, showing a solution color change measurable by OD620-590 (Data not shown). Further oligodendrocyte progenitor maturation in response to selected compounds was assessed by induction of myelin protein expression as determined by immunocytochemistry and western blot. […]

Akt = Akt activity in cell extracts of oligodendrocyte precursors (phosphorylation of Akt substrate GSKα/β); assay type: cell-based; settings: 10 μM, 48 h
Description: Oligodendrocyte precursor differentiation requires the activation of a complex, highly controlled machinery that signals cells to stop migrating/proliferating and start extending processes and producing myelin components. A number of inducers and intracellular mediators of this process have been identified in vitro and in viva. […] Therefore, we studied whether our selected small molecules induced Akt signaling in oligodendrocyte precursors. We analyzed Akt activity in cell extracts of oligodendrocyte precursors treated with selected compounds (10 μM, 48 h), as determined by phosphorylation of Akt substrate GSKα/β.

Molecule | PLP/DM20 Expression (WB, % of Control) [1] | Differentiated Cells (IC, % of Control) [2] | induction of oligodendrocyte precursor maturation [3] | also measured
CCS(=O)(=O)N1CCN(C(=O)COc2ccccc2)CC1 | 148 ± 10.6 n = 2 % of Control | 195 ± 10.9 n = 3; p <0.05 % of Control | – | –
CCS(=O)(=O)N1CCN(C(=O)COc2ccc(C)cc2)CC1 | 160.7 ± 8.2 n = 2 % of Control | 207.5 ± 38.2 n = 3; p <0.05 % of Control | – | –
CCCS(=O)(=O)N1CCN(C(=O)COc2ccc(OC)cc2)CC1 | 143.0 ± 6.9 n = 2 % of Control | 224.3 ± 66.3 n = 3; p <0.05 % of Control | – | –
CC(=O)NC(=Cc1ccc(Cl)cc1)C(=O)N1CCOCC1 [D, N-[2-(4-chlorophenyl)-1-(4-morpholinylcarbonyl)vinyl]acetamide] | – | – | showed induction of oligodendrocyte precursor maturation | –
Br.COc1ccc(C2=CSC3=NCCN23)cc1F [F, 3-(3-fluoro-4-methoxyphenyl)-5,6-dihydroimidazo[2,1-b][1,3]thiazole hydrobromide] | – | – | showed induction of oligodendrocyte precursor maturation | Akt phosphorylation (Akt): clearly detected
B1 | – | – | – | oligodendrocyte progenitor morphological changes indicative of cell maturation ([3]; positive control, 10 ng/ml, 48 hrs): marked oligodendrocyte progenitor morphological changes
